Assay results reported in patent US20230174584A1, “Antibiotic Compounds” (priority 2019, published 2023).
≈ marks a conversion by molar mass, not a printed value.

Key:
[1] = system: E. faecalis E7406; assay: microbe, parasite or virus in culture; assay type: cell-based, Enterococcus faecalis
Experimental: (§1) The antibacterial activity of the compounds was tested against a panel of bacteria, including Gram-positive bacteria (S. aureus ATCC29213, S. aureus USA300, S. aureus LIM-2, NR-45881, S. aureus HIP13419, NR-46413, E. faecium E155, E. faecium E7314, E. faecium E980, E. faecalis E1246, E. faecalis E7406 and S. pneumonia 153). The antibacterial activity of the compounds was further tested against S. aureus NY-155, NR-46236, S. aureus HIP12864, NR-46074, S. aureus 880 (BR-VRSA), NR-49120, E. faecalis E1246, E. faecalis E7604, as well as some Gram-negative bacteria (Escherichia coli and Klebsiella pneumoniae). Minimum inhibitory concentrations (MICs) in μg/mL were performed according to the CLSI guidelines. From glycerol stocks, bacterial strains were cultured on blood agar plates and incubated at 37° C. for 18 h. A single colony was transferred to tryptic soy broth (TSB) with 0.002% polysorbate 80 (p80). For the Enterococcus, VISA and VRSA strains, the cultures were grown at 37° C. until the optical density of the suspension reached a level equivalent to the 0.5 McFarland standard. The bacterial suspensions were diluted in TSB with 0.002% p80 to reach a bacterial cell density of 10^6 CFU/mL. In case of the other (vancomycin-sensitive) S. aureus strains, the direct colony suspension method was used. For these strains, after transfer of the colonies to TSB with 0.002% p80, they were immediately diluted to 10^6 CFU/mL, instead of incubated prior to this dilution. In the case of S. pneumonia, direct colony suspension was used by immediately suspending multiple colonies from fresh blood agar plates in TSB+0.002% p80 to an OD600 of 0.5 and subsequent dilution to 10^6 CFU mL^−1 in TSB+0.002% p80+5% lysed horse blood. Antibiotic dilutions for this strains were also made in TSB+0.002% p80+5% lysed horse blood. Both agar and microplates containing S. pneumonia were incubated at 37° C. with 5% CO2 for 24 h with constant shaking (600 rpm). […] The cultures were grown to exponential phase (OD600=0.5) at 37° C. […] In polypropylene 96-well microtiter plates, test compounds were added in biological triplicates and serial diluted 2-fold by transfer and mixing from one well to the next to achieve a final volume of 50 μL per well. An equal volume of bacterial suspension (10^6 CFU mL^−1) was added to the wells. The plates were sealed with breathable membranes and incubated at 37° C. for 24 h with constant shaking (600 rpm). In polypropylene microtiter plates, 100 μL of the test compounds was added to the first row in biological triplicates, and 50 μL of media was added to the other wells. The compounds were subjected to serial dilution by transfer and mixing of 50 μL from one well to the next. Subsequently, 50 μL of bacterial suspension (10^6 CFU/mL) was added to the wells. The plates were sealed with breathable membranes and incubated at 37° C. for 24 h with constant shaking (600 rpm). Positive growth control consisted of wells with bacterial suspension and without antibiotic. Negative growth control consisted of solely media without bacterial suspension or antibiotic. The MICs were determined from the median of a minimum of triplicates.

[2] = system: E. faecalis E7604; assay: microbe, parasite or virus in culture; assay type: cell-based, Enterococcus faecalis
Experimental: as §1

[3] = system: E. faecium E0072; assay: MIC assay; assay type: cell-based, Enterococcus faecium; conditions: E. faecium E0072, VanA
In short: (§2)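 Read-out: lowest concentration inhibiting growth, reported as the median MIC (μg/mL) over ≥ triplicates. Set-up: CLSI method, TSB with 0.002% polysorbate 80, 10^6 CFU/mL inoculum added in equal volume to 2-fold dilutions, 37 °C for 24 h with 600 rpm agitation.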

[4] = system: E. faecium E1679; assay: MIC assay; assay type: cell-based, Enterococcus faecium; conditions: E. faecium E1679, VanA
In short: as §2

[5] = system: E. faecium E7319; assay: MIC assay; assay type: cell-based, Enterococcus faecium; conditions: E. faecium E7319, VanA
In short: as §2

[6] = system: E. faecium E1763; assay: MIC assay; assay type: cell-based, Enterococcus faecium; conditions: E. faecium E1763, VanA
In short: as §2

[7] = system: E. faecium E2373; assay: MIC assay; assay type: cell-based, Enterococcus faecium; conditions: E. faecium E2373, VanA
In short: as §2

[8] = system: E. faecium E2365; assay: MIC assay; assay type: cell-based, Enterococcus faecium; conditions: E. faecium E2365, VanB
In short: as §2

[9] = system: S. aureus HIP13419, NR-46413; assay: microbe, parasite or virus in culture; assay type: cell-based, Staphylococcus aureus
Experimental: as §1

[10] = system: S. aureus USA300; assay: microbe, parasite or virus in culture; assay type: cell-based, Staphylococcus aureus
Experimental: as §1

[11] = system: E. faecium E0338; assay: MIC assay; assay type: cell-based, Enterococcus faecium; conditions: E. faecium E0338, VanA
[12] = system: S. aureus ATCC29213; assay: MIC assay; assay type: cell-based, Staphylococcus aureus
Experimental: as §1

[13] = system: S. aureus HIP12864, NR-46074; assay: MIC assay; assay type: cell-based, Staphylococcus aureus
Experimental: as §1

[14] = system: S. aureus 880 (BR-VRSA), NR-49120; assay: MIC assay; assay type: cell-based, Staphylococcus aureus
Experimental: as §1

[15] = system: E. faecium E7314; assay: microbe, parasite or virus in culture; assay type: cell-based, Enterococcus faecium
Experimental: as §1

[16] = system: E. faecium E155; assay: microbe, parasite or virus in culture; assay type: cell-based, Enterococcus faecium
Experimental: as §1

[17] = system: E. faecium E2359; assay: MIC assay; assay type: cell-based, Enterococcus faecium; conditions: E. faecium E2359, VanB
[18] = system: E. faecium E1441; assay: MIC assay; assay type: cell-based, Enterococcus faecium; conditions: E. faecium E1441, VanA
[19] = system: E. faecium E7312; assay: MIC assay; assay type: cell-based, Enterococcus faecium; conditions: E. faecium E7312, VanA
[20] = S. aureus HIP13419, NR-46413 VRSA
[21] = S. aureus HIP12864, NR-46074 VISA
[22] = E. faecium E7314, VanB (Table 10)
[23] = E. faecium E155, VanA (Table 10)

| Structure (SMILES) | MIC ([1]; E. faecalis E7406 VRE (VanB)) [µg/mL] | MIC ([2]; E. faecalis E7604 VRE (vanB)) [µg/mL] | MIC [3] [µg/mL] | MIC [4] [µg/mL] | MIC [5] [µg/mL] | MIC [6] [µg/mL] | MIC [7] [µg/mL] | MIC [8] [µg/mL] | MIC [9, 20] [µg/mL] | MIC ([10]; MRSA USA300, TSB + 0.002% p80) [µg/mL] | MIC ([10]; S. aureus USA300 MRSA) [µg/mL] | MIC [11] [µg/mL] | MIC ([12]; S. aureus ATCC29213 MSSA) [µg/mL] | MIC [13, 21] [µg/mL] | MIC ([14]; S. aureus 880, NR-49120 VRSA) [µg/mL] | MIC [15, 22] [µg/mL] | MIC ([15]; E. faecium E7314 VRE (VanB)) [µg/mL] | MIC [16, 23] [µg/mL] | MIC ([16]; E. faecium E155 VRE (VanA)) [µg/mL] | MIC [17] [µg/mL] | other results |
| --- | --- | --- | --- | --- | --- | --- | --- | --- | --- | --- | --- | --- | --- | --- | --- | --- | --- | --- | --- | --- | --- |
| CCCCCCCNC(N)=Nc1ccc(CN[C@@]2(C)C[C@H](O[C@H]3[C@H](Oc4c5cc6cc4Oc4ccc(cc4Cl)[C@@H](O)[C@@H](NC(=O)[C@@H](CC(C)C)NC)C(=O)N[C@@H](CC(N)=O)C(=O)N[C@H]6C(=O)N[C@H]4C(=O)N[C@H](C(=O)N[C@H](C(=O)O)c6cc(O)cc(O)c6-c6cc4ccc6O)[C@H](O)c4ccc(c(Cl)c4)O5)O[C@H](CO)[C@@H](O)[C@@H]3O)O[C@@H](C)[C@H]2O)cc1 [Compound 5] | 0.01562 (≈ 0.00922 µM) | 0.016 (≈ 0.00944 µM) | 0.25 (≈ 0.148 µM) | 16 (≈ 9.44 µM) | 0.5 (≈ 0.295 µM) | 0.25 (≈ 0.148 µM) | 4 (≈ 2.36 µM) | ≤0.008 | 1 (≈ 0.59 µM) | 0.016 | 0.01562 (≈ 0.00922 µM) | 4 (≈ 2.36 µM) | ≤0.007812 | 0.063 (≈ 0.0372 µM) | 4 (≈ 2.36 µM) | ≤0.008 | 0.007812 (≈ 0.00461 µM) | 2 (≈ 1.18 µM) | 2 (≈ 1.18 µM) | ≤0.008 | MIC ([14]; strain BR-VRSA): 4 µg/mL (≈ 2.36 µM); MIC [18]: 4 µg/mL (≈ 2.36 µM); MIC [19]: 0.25 µg/mL (≈ 0.148 µM) |
| CN[C@H](CC(C)C)C(=O)N[C@H]1C(=O)N[C@@H](CC(N)=O)C(=O)N[C@H]2C(=O)N[C@H]3C(=O)N[C@H](C(=O)N[C@H](C(=O)O)c4cc(O)cc(O)c4-c4cc3ccc4O)[C@H](O[C@H]3C[C@](C)(N)[C@@H](O)[C@H](C)O3)c3ccc(c(Cl)c3)Oc3cc2cc(c3O[C@@H]2O[C@H](CO)[C@@H](O)[C@H](O)[C@H]2O[C@H]2C[C@](C)(NCc3ccc(-c4ccc(Cl)cc4)cc3)[C@@H](O)[C@H](C)O2)Oc2ccc(cc2Cl)[C@H]1O [Oritavancin] | – | – | – | – | – | – | – | – | – | – | – | – | – | – | – | – | – | – | – | – | MIC ([1]; Enterococcus faecalis, VRE): 0.0625 µg/mL (≈ 0.0349 µM); MIC ([2]; Enterococcus faecalis, VRE): 0.063 µg/mL (≈ 0.0351 µM); MIC ([9]; Staphylococcus aureus, VRSA): 0.25 µg/mL (≈ 0.139 µM); MIC ([10]; Staphylococcus aureus, MRSA / USA300): 0.0625 µg/mL (≈ 0.0349 µM); MIC ([12]; Staphylococcus aureus, ATCC 29213 / MSSA): 0.25 µg/mL (≈ 0.139 µM); MIC ([13]; Staphylococcus aureus, VISA): 4 µg/mL (≈ 2.23 µM); MIC ([14]; Staphylococcus aureus, VRSA): 0.25 µg/mL (≈ 0.139 µM); MIC ([14]; strain BR-VRSA): 0.25 µg/mL (≈ 0.139 µM); MIC ([15]; Enterococcus faecium, VRE): 0.125 µg/mL (≈ 0.0697 µM); MIC ([16]; Enterococcus faecium, VRE): 0.5 µg/mL (≈ 0.279 µM) |
| CCCCCCCCCNC(N)=Nc1ccc(CN[C@@]2(C)C[C@H](O[C@H]3[C@H](Oc4c5cc6cc4Oc4ccc(cc4Cl)[C@@H](O)[C@@H](NC(=O)[C@@H](CC(C)C)NC)C(=O)N[C@@H](CC(N)=O)C(=O)N[C@H]6C(=O)N[C@H]4C(=O)N[C@H](C(=O)N[C@H](C(=O)O)c6cc(O)cc(O)c6-c6cc4ccc6O)[C@H](O)c4ccc(c(Cl)c4)O5)O[C@H](CO)[C@@H](O)[C@@H]3O)O[C@@H](C)[C@H]2O)cc1 [Compound 7] | ≤0.007812 | ≤0.008 | 0.125 (≈ 0.0726 µM) | 4 (≈ 2.32 µM) | 0.063 (≈ 0.0366 µM) | ≤0.008 | 0.5 (≈ 0.29 µM) | ≤0.008 | 0.125 (≈ 0.0726 µM) | ≤0.008 | ≤0.007812 | 0.5 (≈ 0.29 µM) | 0.01562 (≈ 0.00907 µM) | ≤0.008 | 0.5 (≈ 0.29 µM) | ≤0.008 | ≤0.007812 | 0.5 (≈ 0.29 µM) | 0.5 (≈ 0.29 µM) | ≤0.008 | MIC [18]: 1 µg/mL (≈ 0.58 µM); MIC [19]: 0.031 µg/mL (≈ 0.018 µM) |
| CCCCCCCCNC(N)=Nc1ccc(CN[C@@]2(C)C[C@H](O[C@H]3[C@H](Oc4c5cc6cc4Oc4ccc(cc4Cl)[C@@H](O)[C@@H](NC(=O)[C@@H](CC(C)C)NC)C(=O)N[C@@H](CC(N)=O)C(=O)N[C@H]6C(=O)N[C@H]4C(=O)N[C@H](C(=O)N[C@H](C(=O)O)c6cc(O)cc(O)c6-c6cc4ccc6O)[C@H](O)c4ccc(c(Cl)c4)O5)O[C@H](CO)[C@@H](O)[C@@H]3O)O[C@@H](C)[C@H]2O)cc1 [Compound 6] | ≤0.007812 | ≤0.008 | 0.5 (≈ 0.293 µM) | 8 (≈ 4.68 µM) | 0.125 (≈ 0.0732 µM) | 0.031 (≈ 0.0181 µM) | 2 (≈ 1.17 µM) | ≤0.008 | 0.5 (≈ 0.293 µM) | ≤0.008 | ≤0.007812 | 2 (≈ 1.17 µM) | ≤0.007812 | ≤0.008 | 2 (≈ 1.17 µM) | ≤0.008 | ≤0.007812 | 1 (≈ 0.585 µM) | 1 (≈ 0.585 µM) | ≤0.008 | MIC [18]: 2 µg/mL (≈ 1.17 µM); MIC [19]: 0.063 µg/mL (≈ 0.0369 µM) |
